± gives the expanded uncertainty stated by the source.
What was measured:
[1] = Liquid; for mass density: 101.33 kPa, Pycnometric method; for vapor or sublimation pressure: Isoteniscope
[2] = refractive index (Na D-line) (dimensionless); conditions: 298.15 K; 101.33 kPa; Liquid; Standard Abbe refractometry

## CC(Cl)(Cl)Cl [1,1,1-trichloroethane]
[1]; 298.15 K
  mass density: 1328.7 ± 0.6 kg/m3
  vapor or sublimation pressure: 16.64 ± 0.19 kPa
[1]; 308.15 K
  vapor or sublimation pressure: 25.85 ± 0.22 kPa
[1]; 318.15 K
  vapor or sublimation pressure: 37.61 ± 0.25 kPa
[2]
  refractive index: 1.4354 ± 0.0004

## CCCCCl [1-chlorobutane]
[1]; 298.15 K
  mass density: 880.9 ± 0.4 kg/m3
  vapor or sublimation pressure: 13.72 ± 0.15 kPa
[1]; 308.15 K
  vapor or sublimation pressure: 20.66 ± 0.19 kPa
[1]; 318.15 K
  vapor or sublimation pressure: 31.46 ± 0.23 kPa
[2]
  refractive index: 1.3991 ± 0.0004

## O=C1CCCCC1 [cyclohexanone]
[1]; 298.15 K
  mass density: 943 ± 0.4 kg/m3
  vapor or sublimation pressure: 0.64 ± 0.05 kPa
[1]; 308.15 K
  vapor or sublimation pressure: 1.16 ± 0.06 kPa
[1]; 318.15 K
  vapor or sublimation pressure: 1.92 ± 0.06 kPa
[2]
  refractive index: 1.4482 ± 0.0004
